US20210300924A1, “5-[6-[[3-(4,5,6,7-TETRAHYDROPYRAZOLO[4,3-C]PYRIDIN-1-YL)AZETIDIN-1-YL]METHYL]MORPHOLIN-4-YL]QUINOLINE-8-CARBONITRILE DERIVATIVES AND SIMILAR COMPOUNDS AS TLR7-9 ANTAGONISTS FOR TREATING SYSTEMIC LUPUS ERYTHEMATOSUS” (Hoffmann-La Roche Inc., priority 2018, published 2021)

Columns and labels:
[1] = Human microsome stability assay; format: in vitro ADME; settings: 1 μM test compound, 0.5 mg/mL liver microsomal protein, 37° C., up to 30 minutes; 6.2 = detection limit
Procedure: Human Microsome Stability Assay
The human microsomal stability assay is used for early assessment of metabolic stability of a test compound in human liver microsomes.
Human liver microsomes (Cat. NO.: 452117, Corning, USA; Cat. NO.:H2610, Xenotech, USA) were preincubated with test compound for 10 minutes at 37° C. in 100 mM potassium phosphate buffer, pH 7.4. The reactions were initiated by adding NADPH regenerating system. The final incubation mixtures contained 1 μM test compound, 0.5 mg/mL liver microsomal protein, 1 mM MgCl2, 1 mM NADP, 1 unit/mL isocitric dehydrogenase and 6 mM isocitric acid in 100 mM potassium phosphate buffer, pH 7.4. After incubation times of 0, 3, 6, 9, 15 and 30 minutes at 37° C., 300 μL of cold acetonitrile (including internal standard) was added to 100 μL incubation mixture to terminate the reaction. Following precipitation and centrifugation, the amount of compound remaining in the samples were determined by LC-MS/MS. Controls of no NADPH regenerating system at zero and 30 minutes were also prepared and analyzed.

TLR9 = target: T1, TLR9 (Homo sapiens, UniProt Q9NR96); test: Human PBMC cell-based assay; design: endogenous in cells; host or cells: human PBMC from healthy donor whole blood; settings: CpG ODN 2216 stimulation, overnight, cytokine readout, read-out: hPBMC/TLR9 IC50
T1 sequence (Q9NR96 26-1032): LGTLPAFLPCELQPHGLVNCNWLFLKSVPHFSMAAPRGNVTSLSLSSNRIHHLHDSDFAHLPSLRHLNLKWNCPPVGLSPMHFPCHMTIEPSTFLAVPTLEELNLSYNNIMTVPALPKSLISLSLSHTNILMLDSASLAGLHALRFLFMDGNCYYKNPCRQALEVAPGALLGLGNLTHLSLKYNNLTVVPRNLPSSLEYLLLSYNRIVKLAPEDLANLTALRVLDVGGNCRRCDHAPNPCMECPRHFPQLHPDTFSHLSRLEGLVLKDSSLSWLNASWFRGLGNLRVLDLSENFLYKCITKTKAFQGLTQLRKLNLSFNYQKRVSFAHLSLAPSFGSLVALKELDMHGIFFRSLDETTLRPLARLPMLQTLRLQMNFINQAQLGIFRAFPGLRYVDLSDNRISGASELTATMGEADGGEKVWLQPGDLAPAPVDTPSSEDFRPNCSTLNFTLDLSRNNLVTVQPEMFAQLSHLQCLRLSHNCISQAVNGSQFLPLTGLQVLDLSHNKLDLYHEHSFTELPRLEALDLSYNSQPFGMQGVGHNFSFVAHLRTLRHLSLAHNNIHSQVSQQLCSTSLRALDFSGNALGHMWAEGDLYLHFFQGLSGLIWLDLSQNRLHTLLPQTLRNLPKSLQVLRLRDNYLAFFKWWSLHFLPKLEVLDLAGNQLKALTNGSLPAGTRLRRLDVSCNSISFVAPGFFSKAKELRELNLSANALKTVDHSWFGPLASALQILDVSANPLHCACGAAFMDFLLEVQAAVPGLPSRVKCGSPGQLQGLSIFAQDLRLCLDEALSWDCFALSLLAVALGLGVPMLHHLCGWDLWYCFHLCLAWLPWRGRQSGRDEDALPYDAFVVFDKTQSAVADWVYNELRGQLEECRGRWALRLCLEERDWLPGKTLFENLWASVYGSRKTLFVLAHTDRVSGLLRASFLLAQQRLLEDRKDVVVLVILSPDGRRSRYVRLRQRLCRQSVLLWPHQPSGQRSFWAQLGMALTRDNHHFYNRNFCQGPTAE
Source text: Human PBMC Cell-Based Assay
Unlike the HEK reporter cell lines, human peripheral blood mononuclear cell (PBMC) represents primary human immune cells in blood mainly consisting of lymphocytes, monocytes, and dendritic cells. These cells express TLR7, TLR8, or TLR9, and therefore are natural responders to respective ligand stimulation. Upon activation of these TLRs, PBMCs secrete similar cytokines and chemokines in vitro and in vivo, and therefore the in vitro potency of a TLR7/8/9 antagonist in human PBMC is readily translatable to its pharmacodynamics response in vivo.
Human peripheral blood mononuclear cells (PBMC) were isolated from freshly-drawn lithium-heparinized (Lithium Heparin Plus blood Collection tube, BD Vacutainer®) healthy donor whole blood by density gradient (Ficoll-Paque™ PLUS, GE Healthcare life Sciences). Briefly, […] was diluted with 25 mL PBS (without Ca^2+, Mg^2+) in a 50 mL conical tube with porous barrier (Leucosep tube, Greiner bio-one), where 15.5 mL Ficoll-Paque was under laid after spinning. Tubes were centrifuged for 20 minutes at 800×g (1946 rpm) with the brake in the off position, and PBMC were collected from the buffy coat. Cells were then washed twice in PBS, and red blood cells were lysed by suspension in 2 mL (Red Blood Cell Lysis Buffer, Alfa Aesar) for 5-10 minutes at room temperature. After a final wash in PBS, PBMC were resuspended at a final concentration of 2×10^6 cells/mL in RPMI-1640 media with GlutaMAX™ (Gibco) supplemented with 10% Fetal Bovine Serum (Sigma) and plated at 150 μL/well (3×10^5 cells/well) in tissue culture treated round bottom 96-well plates (Corning Incorporated). Antagonist compounds (compounds of this invention) solubilized and serial diluted in 100% DMSO were added in duplicate to cells to yield a final concentration of 1% DMSO (v/v). PBMC were incubated with antagonist compounds for 30 minutes at 37° C., 5% CO2 before adding various TLR agonist reagents in 48 μL complete media per well as follows (final concentrations indicated): CpG ODN 2216 (InvivoGen) at […] for TLR9, ORN 06/LyoVec (InvivoGen) at 1 μg/mL for TLR8 and R848 (InvivoGen) at 1 μg/mL for TLR7 and TLR8. PBMC were incubated overnight at 37° C. with 5% CO2. Cell culture supernatants were collected, and levels of various human cytokines were assessed by Luminex assay (ProcartaPlex™ Multiplex Immunoassay, Invitrogen) or ELISA procedure according to the manufacturer's recommended protocol (eBioscience, ThermoFisher Scientific). Viability of the cells was also checked with Cell Viability Assay (CellTiter Glo® Luminescent Cell Viability Assay, Promega).

Row | SMILES | Clearance of Human microsome [1] | IC50 (TLR9)
1 | C[C@@H]1Cc2cnn(C3CN(C[C@H]4CN(c5ccc(C#N)c6ncccc56)C[C@@H](C)O4)C3)c2CN1 (single isomer, unassigned) [Example 28] | 6.2 mL/min/kg | 214 nM
2 | C[C@@H]1CN(c2ccc(C#N)c3ncccc23)C[C@H](CN2CC(n3cc4c(n3)CN[C@@H](C)C4)C2)O1 (single isomer, unassigned) [Example 29] | 6.6 mL/min/kg | 115 nM
3 | C[C@@H]1Cc2cn(C3CN(C[C@H]4CN(c5ccc(C#N)c6ncccc56)C[C@@H](C)O4)C3)nc2CN1 (single isomer, unassigned) [Example 30] | 6.2 mL/min/kg | 162 nM
4 | C[C@@H]1CN(c2ccc(C#N)c3ncccc23)C[C@H](CN2CC(n3cc4c(n3)[C@H](C)NCC4)C2)O1 (single isomer, unassigned) [Example 34] | 6.4 mL/min/kg | 202 nM
5 | C[C@@H]1CN(c2ccc(C#N)c3ncccc23)C[C@H](CN2CC(n3cc4c(n3)CNCC4)C2)O1 [Example 4, 5-[(2R,6S)-2-methyl-6-[[3-(4,5,6,7-tetrahydropyrazolo[3,4-c]pyridin-2-yl)azetidin-1-yl]methyl]morpholin-4-yl]quinoline-8-carbonitrile] | 6.2 mL/min/kg | 198 nM
6 | C[C@@H]1CN(c2ccc(C#N)c3ncccc23)C[C@H](CN2CC(n3cc4c(n3)CN(C)CC4)C2)O1 [Example 5, 5-[(2R,6S)-2-methyl-6-[[3-(6-methyl-5,7-dihydro-4H-pyrazolo[3,4-c]pyridin-2-yl)azetidin-1-yl]methyl]morpholin-4-yl]quinoline-8-carbonitrile] | 6.2 mL/min/kg | 318 nM
7 | C[C@@H]1Cc2c(cnn2C2CN(C[C@H]3CN(c4ccc(C#N)c5ncccc45)C[C@@H](C)O3)C2)CN1 [Example 16, 5-[(2R,6S)-2-methyl-6-[[3-[(6R)-6-methyl-4,5,6,7-tetrahydropyrazolo[4,3-c]pyridin-1-yl]azetidin-1-yl]methyl]morpholin-4-yl]quinoline-8-carbonitrile] | 7.2 mL/min/kg | 84 nM
8 | C[C@@H]1Cc2nn(C3CN(C[C@H]4CN(c5ccc(C#N)c6ncccc56)C[C@@H](C)O4)C3)cc2CN1 [Example 17, 5-[(2R,6S)-2-methyl-6-[[3-[(6R)-6-methyl-4,5,6,7-tetrahydropyrazolo[4,3-c]pyridin-2-yl]azetidin-1-yl]methyl]morpholin-4-yl]quinoline-8-carbonitrile] | 6.2 mL/min/kg | 113 nM
9 | C[C@@H]1CN(c2ccc(C#N)c3ncccc23)C[C@H](CN2CC(n3ncc4c3CCN[C@@H]4C)C2)O1 [Example 20, 5-[(2R,6S)-2-methyl-6-[[3-[(4R)-4-methyl-4,5,6,7-tetrahydropyrazolo[4,3-c]pyridin-1-yl]azetidin-1-yl]methyl]morpholin-4-yl]quinoline-8-carbonitrile] | 6.2 mL/min/kg | 97 nM
10 | C[C@@H]1CN(c2ccc(C#N)c3ncccc23)C[C@H](CN2CC(n3cc4c(n3)CCN[C@@H]4C)C2)O1 [Example 21, 5-[(2R,6S)-2-methyl-6-[[3-[(4R)-4-methyl-4,5,6,7-tetrahydropyrazolo[4,3-c]pyridin-2-yl]azetidin-1-yl]methyl]morpholin-4-yl]quinoline-8-carbonitrile] | 6.2 mL/min/kg | 92 nM
11 | C[C@@H]1CN(c2ccc(C#N)c3ncccc23)C[C@H](CN2CC(n3cc4c(n3)CCN[C@H]4C)C2)O1 [Example 23, 5-[(2R,6S)-2-methyl-6-[[3-[(4S)-4-methyl-4,5,6,7-tetrahydropyrazolo[4,3-c]pyridin-2-yl]azetidin-1-yl]methyl]morpholin-4-yl]quinoline-8-carbonitrile] | 6.2 mL/min/kg | 143 nM
12 | Cc1nn(C2CN(C[C@H]3CN(c4ccc(C#N)c5ncccc45)C[C@@H](C)O3)C2)c2c1CCNC2 [Example 42, 5-[(2R,6S)-2-methyl-6-[[3-(3-methyl-4,5,6,7-tetrahydropyrazolo[3,4-c]pyridin-1-yl)azetidin-1-yl]methyl]morpholin-4-yl]quinoline-8-carbonitrile] | 7.1 mL/min/kg | 
13 | Cc1c2c(nn1C1CN(C[C@H]3CN(c4ccc(C#N)c5ncccc45)C[C@@H](C)O3)C1)CNCC2 [Example 43, 5-[(2R,6S)-2-methyl-6-[[3-(3-methyl-4,5,6,7-tetrahydropyrazolo[3,4-c]pyridin-2-yl)azetidin-1-yl]methyl]morpholin-4-yl]quinoline-8-carbonitrile] | 6.5 mL/min/kg | 
